Data reported in US7183288B2, “Amide derivatives as glycogen synthase kinase 3-β inhibitors” (priority 2001, dated 2007).

Test system: not given
Assay: not given
Conditions: not given

melting point	SMILES
232 °C	N#Cc1ccc(Nc2ncccc2C(N)=O)cc1OCc1ccccc1 [Compound 1, 2-(3-benzyloxy-4-cyano-phenylamino)-nicotinamide]

Target: GSK3β (Homo sapiens, UniProt P49841)
Assay: GSK3beta assay (SPA, biotinylated phosphorylated CREB peptide, ATP-P33)
Format: biochemical
Conditions: -log IC50 (M); 19 nM GSK3β, 5 μM biotinylated phosphorylated CREB peptide, 1 μM ATP, 25° C., one hour
Method: GSK3beta assays were performed at 25° C. in a 100 μl reaction volume of 25 mM Tris (pH 7.4) containing 10 mM MgCl2, 1 mM DTT, 0.1 mg/ml BSA, 5% glycerol and containing 19 nM GSK3β, 5 μM biotinylated phosphorylated CREB peptide, 1 μM ATP, 2 nM ATP-P^33 and a suitable amount of a test compound of formula (I) or (I′). After one hour, the reaction was terminated by adding 70 μl of Stop mix (1 mM ATP, 18 mg/ml streptavidin coated PVT SPA bead pH 11.0). The beads to which the phosphorylated CREB peptide is attached were allowed to settle for 30 minutes and the radioactivity of the beads was counted in a microtiterplate scintillation counter and compared with the results obtained in a control experiment (without the presence of a test compound) in order to determine the percentage of GSK3β inhibition. The IC50 value, i.e. the concentration (M) of the test compound at which 50% of GSK3β is inhibited, was calculated from the dose response curve obtained by performing the above-described GSK3β assay in the presence of different amounts of the test compound.

Sequence of GSK3β (P49841 whole entry, species assumed): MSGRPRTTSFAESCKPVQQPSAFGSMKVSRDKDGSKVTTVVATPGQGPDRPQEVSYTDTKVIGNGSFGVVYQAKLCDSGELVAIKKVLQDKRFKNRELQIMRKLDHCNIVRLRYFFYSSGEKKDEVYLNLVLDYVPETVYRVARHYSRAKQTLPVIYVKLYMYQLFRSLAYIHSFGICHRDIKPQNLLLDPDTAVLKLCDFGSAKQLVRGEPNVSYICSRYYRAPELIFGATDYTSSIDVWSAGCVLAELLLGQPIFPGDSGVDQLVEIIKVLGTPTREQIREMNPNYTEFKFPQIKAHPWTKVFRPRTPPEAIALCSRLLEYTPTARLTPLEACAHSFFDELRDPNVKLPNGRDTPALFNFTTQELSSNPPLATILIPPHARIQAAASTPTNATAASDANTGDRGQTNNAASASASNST

SMILES	IC50
N#Cc1ccc(Nc2nccc(C(N)=O)n2)cc1OCCN1CCOCC1 [Compound 11]	2.63e-07 M
NC(=O)c1ccnc(Nc2cccc(OCc3ccccc3)c2)n1 [Compound 25]	9.12e-08 M
CNC(=O)c1ccnc(Nc2ccc(C#N)c(OCc3ccccc3)c2)n1 [Compound 3]	5.5e-08 M
N#Cc1ccc(Nc2nccc(C(N)=O)n2)cc1OCCCc1ccccc1 [Compound 18]	5.75e-08 M
N#Cc1ccc(Nc2nccc(C(N)=O)n2)cc1OCc1cccc(C(F)(F)F)c1 [Compound 36]	4.07e-07 M
N#Cc1ccc(Nc2nccc(C(N)=O)n2)cc1 [Compound 29]	1.48e-07 M
N#Cc1ccc(Nc2nccc(C(N)=O)n2)cc1OCCOc1ccc(F)cc1F [Compound 17]	2.45e-07 M
N#Cc1ccc(Nc2nccc(C(N)=O)n2)cc1O/C=C/c1ccccc1 [Compound 15]	1.32e-07 M
N#Cc1ccc(Nc2nccc(C(N)=O)n2)cc1OCC1CC(c2cccnc2)=NO1 (centres unmarked) [Compound 22]	2.34e-07 M
N#Cc1ccc(Nc2nccc(C(N)=O)n2)cc1OCc1cc(C(F)(F)F)cc(C(F)(F)F)c1 [Compound 9]	3.8e-07 M
CN(C)CCOc1cc(Nc2nccc(C(N)=O)n2)ccc1C#N [Compound 12]	8.91e-07 M
N#Cc1ccc(Nc2nccc(C(N)=O)n2)cc1OCCC1COc2ccccc2O1 (centres unmarked) [Compound 14]	1.38e-07 M
Cc1cc(C)cc(COc2cc(Nc3nccc(C(N)=O)n3)ccc2C#N)c1 [Compound 10]	1.1e-07 M
CCn1ccnc1COc1cc(Nc2nccc(C(N)=O)n2)ccc1C#N [Compound 24]	4.79e-08 M
CN(C)S(=O)(=O)Nc1cccc(COc2cc(Nc3nccc(C(N)=O)n3)ccc2C#N)c1 [Compound 8]	2.09e-08 M
CCc1noc(COc2cc(Nc3nccc(C(N)=O)n3)ccc2C#N)n1 [Compound 26]	4.37e-07 M
CC(COc1cc(Nc2nccc(C(N)=O)n2)ccc1C#N)Oc1ccc(F)cc1 (centres unmarked) [Compound 16, 2-[[4-cyano-3-[2-(4-fluorophenoxy)propoxy]phenyl]amino]-4-pyrimidinecarboxamide]	3.89e-08 M
N#Cc1ccc(COc2cc(Nc3nccc(C(N)=O)n3)ccc2C#N)cc1 [Compound 31]	9.55e-08 M

Other lines, results leading:

IC50	SMILES
8.13e-08 M	N#Cc1ccc(Nc2nccc(C(N)=O)n2)cc1OCc1cccc2ccccc12 [Compound 23]
5.25e-08 M	COc1ccc(COc2cc(Nc3nccc(C(N)=O)n3)ccc2C#N)cc1 [Compound 13, 2-[[4-cyano-3-[(4-methoxyphenyl)methoxy]phenyl]amino]-4-pyrimidinecarboxamide]
1.55e-07 M	Cc1ccc(COc2cc(Nc3nccc(C(N)=O)n3)ccc2C#N)cc1 [Compound 35]
1.78e-07 M	Cc1ccccc1COc1cc(Nc2nccc(C(N)=O)n2)ccc1C#N [Compound 34]
4.68e-08 M	COc1ccccc1COc1cc(Nc2nccc(C(N)=O)n2)ccc1C#N [Compound 30, 2-[[4-cyano-3-[(2-methoxyphenyl)methoxy]phenyl]amino]-4-pyrimidinecarboxamide]
4.57e-07 M	N#Cc1ccc(Nc2nccc(C(N)=O)n2)cc1OCc1nc2ccccc2s1 [Compound 19]
2.51e-08 M	N#Cc1ccc(Nc2nccc(C(N)=O)n2)cc1OCc1ccc2ccccc2n1 [Compound 21]
6.46e-08 M	Cc1cccc(COc2cc(Nc3nccc(C(N)=O)n3)ccc2C#N)c1 [Compound 32]
5.01e-08 M	N#Cc1ccc(Nc2nccc(C(N)=O)n2)cc1OCc1ccccc1 [Compound 2, 2-[[4-cyano-3-(phenylmethoxy)phenyl]amino]-4-pyrimidinecarboxamide]
5.5e-08 M	N#Cc1ccc(Nc2nccc(C(N)=O)n2)cc1OCc1ccc2ccccc2c1 [Compound 38, 2-[[4-cyano-3-(2-naphthalenylmethoxy)phenyl]amino]-4-pyrimidinecarboxamide]
